Assay results as given in US8461189B2, “Pyridyl derivatives as histone deacetylase inhibitors” (Merck Sharp & Dohme Corp., priority 2007, dated 2013).
Where two headings read alike, the source gives them in different places.

Tests used:
[1] = tested on: HCT-116 cells; assay: ATP (Vialight) cell proliferation assay, HCT-116; type: cell-based; settings: Homo sapiens
Procedure: (§1) The novel compounds of the present invention were tested for their ability to inhibit proliferation of the human cervical cancer (HeLa) and colon carcinoma (HCT116) cells.
(§2) In this assay, also referred to as the Vialight Assay, cellular ATP levels are measured as a means of quantifying cellular proliferation. This assay makes use of a bioluminescent method from Cambrex (ViaLight PLUS, cat. #LT07-121). In the presence of ATP, luciferase converts luciferin to oxyluciferin and light. The amount of light produced (emission at 565 nm) is measured and correlates with a relative amount of proliferation. Human cervical cancer (HeLa) or colon carcinoma (HCT116) cells were incubated with vehicle or increasing concentrations of compound for 48, 72 or 96 hours. Cell proliferation was quantified by adding the cell lysis reagent (provided in the Vialight assay kit) directly to culture wells, followed by addition of the ATP-monitoring reagent (containing luciferase/luciferin). The amount of light produced is then measured (emission at 565 nm). The quantity of light produced, as measured by […], is directly proportional to the number of living cells in culture.

[2] = target: T1, human HDAC1 complex (Homo sapiens, UniProt Q13547); assay: HDAC1-Flag in vitro deacetylation assay; type: biochemical
T1 construct: Flag; made in house
T1 sequence (Q13547 whole entry, one chain of several): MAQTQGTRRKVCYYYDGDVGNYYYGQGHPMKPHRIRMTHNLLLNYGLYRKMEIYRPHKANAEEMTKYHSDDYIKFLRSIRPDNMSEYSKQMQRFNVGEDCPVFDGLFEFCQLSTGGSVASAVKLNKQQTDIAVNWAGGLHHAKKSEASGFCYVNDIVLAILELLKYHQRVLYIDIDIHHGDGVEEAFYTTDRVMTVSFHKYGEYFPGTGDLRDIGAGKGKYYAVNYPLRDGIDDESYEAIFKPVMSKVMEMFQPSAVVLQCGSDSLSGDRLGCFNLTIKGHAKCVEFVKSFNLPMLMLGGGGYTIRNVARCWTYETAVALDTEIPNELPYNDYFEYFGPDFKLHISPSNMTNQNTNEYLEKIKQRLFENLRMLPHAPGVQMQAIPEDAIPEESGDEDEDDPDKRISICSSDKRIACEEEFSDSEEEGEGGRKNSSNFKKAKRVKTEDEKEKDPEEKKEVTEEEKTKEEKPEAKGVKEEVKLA
Procedure: Novel compounds were tested for their ability to inhibit histone deacetylase, subtype 1 (HDAC1) using an in vitro deacetylation assay. The enzyme source for this assay was an epitope-tagged human HDAC1 complex immuno-purified from stably expressing mammalian cells. The substrate consisted of a commercial product containing an acetylated lysine side chain (BIOMOL Research Laboratories, Inc., Plymouth Meeting, Pa.). Upon deacetylation of the substrate by incubation with the purified HDAC1 complex, a fluorophore is produced that is directly proportional to the level of deacetylation. Using a substrate concentration at the Km for the enzyme preparation, the deacetylation assay was performed in the presence of increasing concentrations of novel compounds to semi-quantitatively determine the concentration of compound required for 50% inhibition (IC50) of the deacetylation reaction.

[3] = target: Cyp 2C9 (Homo sapiens, UniProt P11712); assay: Cyp inhibition, Cyp2C9; type: in vitro ADME; settings: read-out: Percent Cyp inhibition, 2C9
Cyp 2C9, sequence (P11712 whole entry): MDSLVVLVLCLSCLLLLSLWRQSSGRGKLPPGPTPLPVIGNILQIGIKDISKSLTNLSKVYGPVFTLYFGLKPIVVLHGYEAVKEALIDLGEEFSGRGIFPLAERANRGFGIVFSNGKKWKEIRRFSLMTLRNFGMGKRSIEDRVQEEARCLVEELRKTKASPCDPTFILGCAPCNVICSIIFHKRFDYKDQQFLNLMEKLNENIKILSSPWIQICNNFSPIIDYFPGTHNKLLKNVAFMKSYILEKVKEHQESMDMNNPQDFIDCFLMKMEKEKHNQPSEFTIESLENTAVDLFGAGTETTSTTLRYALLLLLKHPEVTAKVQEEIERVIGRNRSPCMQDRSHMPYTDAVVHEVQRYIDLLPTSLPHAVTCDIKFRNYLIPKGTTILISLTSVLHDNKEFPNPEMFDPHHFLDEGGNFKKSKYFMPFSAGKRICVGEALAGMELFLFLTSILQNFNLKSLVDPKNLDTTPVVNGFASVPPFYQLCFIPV

[4] = target: Cyp 2D6 (Homo sapiens, UniProt P10635); assay: Cyp inhibition, Cyp2D6; type: in vitro ADME; settings: read-out: Percent Cyp inhibition, 2D6
Cyp 2D6, sequence (P10635 whole entry): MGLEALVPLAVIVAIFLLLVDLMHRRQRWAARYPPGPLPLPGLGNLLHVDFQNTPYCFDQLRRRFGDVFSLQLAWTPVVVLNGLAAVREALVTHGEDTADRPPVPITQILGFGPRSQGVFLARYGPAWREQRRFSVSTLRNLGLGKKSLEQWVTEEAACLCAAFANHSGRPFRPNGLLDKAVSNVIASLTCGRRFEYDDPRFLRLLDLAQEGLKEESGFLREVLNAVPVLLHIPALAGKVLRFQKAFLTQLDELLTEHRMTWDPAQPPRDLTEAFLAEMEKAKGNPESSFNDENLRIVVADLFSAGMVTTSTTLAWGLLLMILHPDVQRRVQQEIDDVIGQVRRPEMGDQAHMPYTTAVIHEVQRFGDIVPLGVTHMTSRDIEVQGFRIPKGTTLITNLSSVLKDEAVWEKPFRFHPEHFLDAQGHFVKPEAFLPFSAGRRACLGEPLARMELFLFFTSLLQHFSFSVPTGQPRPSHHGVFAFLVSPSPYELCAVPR

[5] = target: MK-499 binding (Homo sapiens, UniProt Q12809); assay: MK-499 binding; settings: read-out: inflection point for MK-499 binding
MK-499 binding, sequence (Q12809 whole entry): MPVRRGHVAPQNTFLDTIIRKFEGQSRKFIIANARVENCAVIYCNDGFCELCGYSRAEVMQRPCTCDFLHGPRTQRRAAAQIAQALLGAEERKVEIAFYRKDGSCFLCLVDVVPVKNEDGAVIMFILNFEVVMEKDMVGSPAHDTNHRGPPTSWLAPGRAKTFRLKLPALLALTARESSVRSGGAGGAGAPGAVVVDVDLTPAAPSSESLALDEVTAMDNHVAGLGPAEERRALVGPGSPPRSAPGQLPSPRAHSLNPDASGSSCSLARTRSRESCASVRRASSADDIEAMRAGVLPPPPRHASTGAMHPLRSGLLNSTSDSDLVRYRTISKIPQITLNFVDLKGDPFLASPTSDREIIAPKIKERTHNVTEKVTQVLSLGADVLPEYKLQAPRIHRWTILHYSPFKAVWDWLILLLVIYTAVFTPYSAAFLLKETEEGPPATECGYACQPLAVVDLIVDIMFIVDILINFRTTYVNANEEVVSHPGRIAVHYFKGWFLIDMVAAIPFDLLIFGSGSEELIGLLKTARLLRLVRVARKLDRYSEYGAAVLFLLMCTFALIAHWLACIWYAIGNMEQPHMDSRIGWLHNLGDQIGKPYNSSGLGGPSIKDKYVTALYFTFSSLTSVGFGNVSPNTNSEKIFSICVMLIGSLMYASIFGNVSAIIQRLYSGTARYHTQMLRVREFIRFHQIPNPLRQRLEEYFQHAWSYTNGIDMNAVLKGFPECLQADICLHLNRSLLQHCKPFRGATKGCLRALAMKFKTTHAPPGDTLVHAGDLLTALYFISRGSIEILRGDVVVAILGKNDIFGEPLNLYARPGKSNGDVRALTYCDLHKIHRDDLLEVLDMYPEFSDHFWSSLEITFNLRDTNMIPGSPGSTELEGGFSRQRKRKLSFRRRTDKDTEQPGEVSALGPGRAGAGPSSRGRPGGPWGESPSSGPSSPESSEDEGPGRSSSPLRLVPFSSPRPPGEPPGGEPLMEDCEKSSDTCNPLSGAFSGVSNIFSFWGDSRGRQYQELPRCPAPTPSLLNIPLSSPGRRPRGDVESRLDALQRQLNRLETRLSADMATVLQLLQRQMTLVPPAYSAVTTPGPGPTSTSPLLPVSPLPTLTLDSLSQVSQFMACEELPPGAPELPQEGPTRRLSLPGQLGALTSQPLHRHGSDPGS

[6] = target: Cyp3A4 (Homo sapiens, UniProt P08684); assay: Cyp inhibition, Cyp3A4; type: in vitro ADME; settings: read-out: Percent Cyp inhibition, Cyp3A4
Cyp3A4, sequence (P08684 whole entry, species assumed): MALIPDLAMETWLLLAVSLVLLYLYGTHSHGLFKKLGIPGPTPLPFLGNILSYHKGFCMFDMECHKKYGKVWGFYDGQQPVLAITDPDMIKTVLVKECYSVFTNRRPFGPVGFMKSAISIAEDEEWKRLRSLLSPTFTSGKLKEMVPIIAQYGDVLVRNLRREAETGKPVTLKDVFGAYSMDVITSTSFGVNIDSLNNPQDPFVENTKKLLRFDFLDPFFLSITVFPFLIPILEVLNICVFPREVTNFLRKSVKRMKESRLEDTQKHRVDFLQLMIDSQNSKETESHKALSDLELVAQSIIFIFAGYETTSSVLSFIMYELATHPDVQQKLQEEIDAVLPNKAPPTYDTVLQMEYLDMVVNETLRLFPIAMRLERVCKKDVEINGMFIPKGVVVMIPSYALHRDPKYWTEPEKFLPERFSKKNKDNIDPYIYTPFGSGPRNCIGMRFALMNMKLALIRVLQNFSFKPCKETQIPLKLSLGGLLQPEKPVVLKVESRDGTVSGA

[7] = tested on: human cervical cancer (HeLa) or colon carcinoma (HCT116) cells; assay: Prol-72 hr, ATP (Vialight) proliferation assay, cell line not given; type: cell-based; settings: Table 2, IP = inflection point, cell line not stated
Procedure: as §1, §2

[8] = Table 2, IP = inflection point, read-out: HDAC1 IP*
[9] = Table 3, IP = inflection point, read-out: HDAC 1 IP*

Compound | IC50 [1] | IC50 ([2]; read-out: in vitro HDAC1 IC50) | inhibition at 10 µM [3] | inhibition at 10 µM [4] | IC50 [5] | inhibition at 10 µM [6] | IC50 [2, 8] | IC50 [7] | IC50 [2, 9]
CC(=O)Nc1ccc(C(=O)Nc2nc(-c3ccccc3)ccc2N)cc1 [4-(Acetylamino)-N-(3-amino-6-phenylpyridin-2-yl)benzamide] | 2.05 µM | 0.086 µM |  |  |  |  |  |  | 
Nc1ccc(-c2ccccc2)nc1NC(=O)c1ccc(CNC(=O)OCc2ccccc2)cc1 [Benzyl(4-{[(3-amino-6-phenylpyridin-2-yl)amino]carbonyl}benzyl)carbamate] | 0.59 µM | 0.032 µM | 25% | 24% | 12.2 µM | 7% |  |  | 
COC(=O)NCc1ccc(C(=O)Nc2nc(-c3ccccc3)ccc2N)cc1 [Methyl(4-{[(3-amino-6-phenylpyridin-2-yl)amino]carbonyl}benzyl)carbamate] | 1.2 µM | 0.037 µM | 49% | 27% | > 10 µM | 29% |  |  | 
CC(C)(C)c1ccc(C(=O)Nc2nc(-c3ccccc3)ccc2N)cc1 [N-(3-amino-6-phenyl-2-pyridinyl)-4-(1,1-dimethylethyl) benzamide] |  |  |  |  |  |  | 0.235 µM | 20 µM | 
Nc1ccc(-c2ccccc2)nc1NC(=O)c1ccccc1 [N-(3-amino-6-phenylpyridin-2-yl)benzamide] |  |  |  |  |  |  | 1.16 µM |  | 
Nc1ccc(-c2ccccc2)nc1NC(=O)c1ccc(CNC(=O)OCc2ccccn2)cc1 [Pyridin-2-ylmethyl(4-{[(3-amino-6-phenylpyridin-2-yl)amino]carbonyl}benzyl)carbamate] | 0.56 µM | 0.035 µM | 47% | 24% | 2540 µM | 27% |  |  | 
Nc1ccc(-c2ccccc2)nc1NC(=O)c1ccc(CNC(=O)OCc2cccnc2)cc1 [Pyridin-3-ylmethyl[(4-{[(3-amino-6-phenylpyridin-2-yl)amino]carbonyl}phenyl)methyl]carbamate] | 0.58 µM | 0.084 µM | 54% | 55% | > 30 µM | 46% |  |  | 
COC(=O)c1ccc(C(=O)Nc2nc(-c3ccccc3)ccc2N)cc1 [benzoic acid, methyl 4-[[(3-amino-6-phenyl-2-pyridinyl)amino]carbonyl]benzoate] |  |  |  |  |  |  | 0.195 µM | 20 µM | 
CCOC(=O)NCc1ccc(C(=O)Nc2nc(-c3ccccc3)ccc2N)cc1 [ethyl (4-{[(3-amino-6-phenylpyridin-2-yl)amino]carbonyl}benzyl)carbamate] |  |  |  |  |  |  |  |  | 0.011 µM
Nc1ccc(-c2ccccc2)nc1NC(=O)c1ccc(CNC(=O)Oc2ccccc2)cc1 [phenyl (4-{[(3-amino-6-phenylpyridin-2-yl)amino]carbonyl}benzyl)carbamate] |  |  |  |  |  |  |  |  | 0.012 µM
Nc1ccc(-c2cccs2)nc1NC(=O)c1ccc(CNC(=O)OCc2cccnc2)cc1 [pyridin-3-ylmethyl {[4-({[3-amino-6-(2-thienyl)pyridin-2-yl]amino}carbonyl)phenyl]methyl}carbamate] | 0.56 µM | 0.056 µM |  |  |  |  |  |  | 
